The results in this text go back to patent publication US9702824B2, “pH sensors” (PROMEGA CORPORATION, priority 2012, dated 2017).

Read-outs that look alike come from different tables or passages of the source.

The subject of data set [1] is U2-OS cells stably expressing HaloTag-NLS. As to the kind of experiment: pH sensor permeability, pulse and chase with HaloTag Oregon Green (Example 12). The following applies: 2 uM pulse for 10 minutes.
The nature of data set [2]: Ex/Em printed with the synthesis procedures. The format is physicochemical.
The subject of another data set is wild-type U2-OS cells. The experiment in a line: Toxicity of HaloTag pH sensors, CELLTITER Glo Cell Viability Assay (Example 9). The format is cell-based. The following applies: 0-10 uM, overnight. As for the experimental part:
U2-OS cells were plated at 10,000 cells/well into wells of 96-well plates and incubated overnight. The next day, 0-10 uM (serially diluted 1:2) PBI-4959, PBI-5004 or PBI-4479 was added to the cells and again incubated overnight. After incubation, the media containing the HaloTag® pH sensors was removed, and 100 ul of fresh media (McCoy's 5A+10% FBS) was added. Cell viability was determined using the CELLTITER Glo Cell Viability Assay according to the manufacturer's protocol (Promega Corporation). Luminescence was read on a GloMAX®-Multi luminometer.

The target of data set [3] is T1, U2-OS HaloTag-EDG1 cells (Homo sapiens, UniProt P21453).
T1 construct: host or cells: U2-OS HaloTag-EDG1 cells
The experiment in a line: Detection of internalization using a permeable pH sensor (Example 13). The format is cell-based. Particulars: 500 nM sensor added after stimulation with or without 1 uM S1P. As for the experimental part:
To evaluate internalization using a permeable pH Sensor, U2-OS HaloTag®-EDG1 cells (Promega Corporation) were exposed to PBI-5004 and internalization of HaloTag®-EDG1 assessed. […] The next day, the media was replaced with McCoy's 5A+0.5% cFBS and incubated overnight at 37° C./5% CO2. After incubation, 1 uM S1P (Sphingosine-1-Phosphate) was added, and the cells incubated for 30 minutes at 37° C./5% CO2.

Data set [4] relates to U2-OS cells stably expressing HaloTag-NLS.
Data set [5] concerns HaloTag-EDG1 fusion protein in U2-OS cells. The experiment in a line: Blocking internalization by DYNASORE, detected with pH sensor. It is filed as cell-based. The following applies: 80 uM, 1 uM S1P for 60 minutes, detected with 1 uM PBI-4479. Here is the method:
In addition to dynamin, DYNASORE, a reversible, non-competitive inhibitor of dynamin, can also be used to block internalization/endocytosis with the blocking detected and monitored using the pH sensor of the present invention. […] After the overnight incubation, the cells were simultaneously labeled for 30 minutes with 1 uM HaloTag pH sensor (PBI-4479) and 80 uM Dynasore (Sigma). Control cells were labeled with the 1 uM HaloTag pH sensor, but were not treated with Dynasore. The cells were then stimulated with 1 uM S1P for 60 minutes and imaged as previously described.

Data set [6] shares this test system. The experiment in a line: Restoration of internalization by DYNASORE washout. It is filed as cell-based. The following applies: 80 uM removed by washing, then 1 uM S1P for 60 minutes. Here is the method: In such experiments, blocked internalization of HaloTag-EDG1 was restored. […] After the overnight incubation, the cells were simultaneously labeled with a HaloTag pH sensor (PBI-4479) and 80 uM DYNASORE (Sigma). Control cells were labeled with the HaloTag pH sensor, but were not treated with DYNASORE. The cells were then stimulated with 1 uM S1P and imaged (T=0 in FIG. 17). At this point, DYNASORE prevents the dynamin-dependent internalization/endocytosis of HaloTag-EDG1. DYNASORE was then removed by washing three times for 5 minutes with McCoy's 5A+10% FBS, and the media replaced with complete media containing 1 uM S1P. The cells were incubated for 60 minutes and imaged as previously described. Internalization of HaloTag-EDG1 was restored as detected and monitored by the pH sensor (SEE FIG. 19).

Another data set deals with U2OS cells. The experiment in a line: Toxicity, CELLTITER-GLO Luminescent Cell Viability Assay (Example 3). It is filed as cell-based. Particulars: 0 nM to 20 uM, 24 hour. Here is the method:
The toxicity of dyes PBI-4479 and PBI-4453 was tested in U2OS cells. The cells were plated at 20,000 cells/well in McCoy's 5A media+10% FBS into wells of a 96-well plate. The compounds were then serially diluted 2-fold in McCoy's 5A+10% FBS to a 10× working solution. 10 ul of the working solution was added to the cells to a final concentration of 0 nM to 20 uM. The treated cells were then incubated overnight at 37° C., 5% CO2. Toxicity was tested using Promega's CELLTITER-GLO Luminescent Cell Viability Assay according to the manufacturer's protocol. No toxicity was seen across varying concentrations of the compounds over the 24 hour period (SEE FIG. 9).

Data set [7] can be described thus: pH dependence of fluorescence emission. It is filed as physicochemical. Here is the method:
(§1) Experiments were conducted during development of embodiments of the present invention to determine the fluorescence characteristics of exemplary pH sensor agents PBI-4453 and PBI-4479 (SEE FIG. 1). Fluorescence excitation and emission intensities were measured at a range of wavelengths (SEE FIG. 2). […] Fluorescence detection was performed at a range of pH values (SEE FIG. 3).

Data set [8] can be described thus: Fluorescence excitation and emission spectra of pH sensor agents. It is filed as physicochemical. Here is the method: as §1
In data set [9] the target is T1, U2-OS HaloTag-EDG1 cells. The experiment in a line: Detection of internalization using an impermeable pH sensor (Example 13). The following applies: 500 nM sensor. The format is cell-based. Here is the method:
The next day, the media was replaced with McCoy's 5A+0.5% cFBS and incubated overnight at 37° C./5% CO2. […] 1 uM S1P (Sphingosine-1-Phosphate) or carrier (DMSO) was then added to the cells, and images were acquired sequentially on Olympus FV500 at 37° C./5% CO2.

T1 sequence (P21453 with tags, fused parts or gaps): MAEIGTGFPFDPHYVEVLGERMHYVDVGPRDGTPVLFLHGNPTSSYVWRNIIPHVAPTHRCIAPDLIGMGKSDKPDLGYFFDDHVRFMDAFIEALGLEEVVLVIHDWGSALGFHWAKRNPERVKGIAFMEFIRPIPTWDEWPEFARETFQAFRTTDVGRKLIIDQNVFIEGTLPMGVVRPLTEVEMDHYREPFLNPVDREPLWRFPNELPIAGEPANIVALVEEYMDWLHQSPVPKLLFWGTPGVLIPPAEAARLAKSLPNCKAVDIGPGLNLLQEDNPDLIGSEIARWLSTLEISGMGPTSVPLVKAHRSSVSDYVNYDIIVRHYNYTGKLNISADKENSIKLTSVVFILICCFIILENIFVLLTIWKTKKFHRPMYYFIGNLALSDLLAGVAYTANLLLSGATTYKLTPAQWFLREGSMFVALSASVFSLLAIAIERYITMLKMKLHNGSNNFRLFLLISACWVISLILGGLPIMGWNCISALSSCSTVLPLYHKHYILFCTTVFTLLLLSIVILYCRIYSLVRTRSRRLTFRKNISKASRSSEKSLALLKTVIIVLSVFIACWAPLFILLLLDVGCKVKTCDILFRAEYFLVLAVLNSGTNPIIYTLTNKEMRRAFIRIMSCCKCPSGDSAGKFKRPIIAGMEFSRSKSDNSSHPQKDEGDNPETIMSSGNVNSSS

As for `O=C(CCOCCOCCOCCOCCNC(=O)c1ccc(C(=O)[O-])c(-c2c3ccc(=[N+]4CCN(CCCCS(=O)(=O)O)CC4)cc-3oc3cc(N4CCN(CCCCS(=O)(=O)O)CC4)ccc23)c1)NCc1cccc(C(=O)NCCOCCOCCCCCCCl)c1` [PBI-4994], the cell permeability entry in data set [1] is “non-permeability”.
Regarding `CN1CCN(c2ccc3c(c2)Oc2c4c5c(cc2=C3c2cc(C(=O)O)ccc2C(=O)[O-])CCC[N+]=5CCC4)CC1` [Hexahydroquinoiizino-(4-methylpiperazin-1-yl}-rhodamine-6′-carboxyic acid], in data set [2], the Em amounted to 586 nm and the Ex is given as 559 nm.
In data set [2], `O=C(NCC1CCC(C(=O)NCCOCCOCCCCCCCl)CC1)c1ccc(C(=O)[O-])c(-c2c3ccc(=[N+]4CCN(CCCCS(=O)(=O)O)CC4)cc-3oc3cc(N4CCN(CCCCS(=O)(=O)O)CC4)ccc23)c1` (centres unmarked) [PBI-5004, 4-(((4-((2-(2-((6-chlorohexyl)oxy)ethoxy)ethyl)carbamoyl)cyclohexyl)methyl)) 3′,6′-bis(4-(4-sulfobutyl)piperazin-1-yl) rhodamine(5′,6′) carboxamide] came in with an Em of 560 nm and an Ex of 532 nm. In addition, the “toxicity (cell viability)” value in the data set with wild-type U2-OS cells was “non-toxicity”. Further, the “detection of HaloTag-EDG1 internalization” value on U2-OS HaloTag-EDG1 cells [3] was “ability to detect internalization of HaloTag-EDG1”.
As to `O=C(NCCOCCOCCCCCCCl)c1cccc(CNC(=O)c2ccc(C(=O)[O-])c(-c3c4ccc(=[N+]5CCN(CCCCS(=O)(=O)O)CC5)cc-4oc4cc(N5CCN(CCCCS(=O)(=O)O)CC5)ccc34)c2)c1` [PBI-4958], the cell permeability entry in data set [1] is listed as “non-permeability”.
In the case of “4-((1-(4-((2-(2-((6-chlorohexyl)oxy)ethoxy)ethyl)carbamoyl)phenyl)-3-oxo-6,9,12,15-tetraoxa-2-azaheptadecan-17-yl)) 3′,6′-bis(4-(4-sulfobutyl)piperazin-1-yl) rhodamine(5′,6′)carboxamide [PBI-4995]”, the cell permeability result in data set [4] is on record as “non-permeability”.
As to `O=C(N/N=C/c1ccc(O)c(O)c1)c1cc2ccccc2cc1O` [DYNASORE], the “effect on HaloTag-EDG1 internalization” value in data set [5] was “prevented dynamin-dependent internalization/endocytosis”. For the same molecule, in data set [6], the “HaloTag-EDG1 internalization after washout” value was “restored”.
Consider `CN1CCN(c2ccc3c(-c4cc(C(=O)NCCOCCOCCOCCOCCOCCOCCCCCCCl)ccc4C(=O)[O-])c4ccc(=[N+]5CCN(C)CC5)cc-4oc3c2)CC1` [PBI-4453, N-(24-chloro-3,6,9,12,15,18-hexaoxatetracosyl)-3′,6′-bis(4-methylpiperazin-1-yl)-rhodamine-(5,6)carboxamide], for which the “toxicity (cell viability)” value with U2OS cells is recorded as “No toxicity”. In addition, in data set [7], the “pH at or below which maximal fluorescence intensity is exhibited” value is listed as ≤ 4.15. Further, the “percent of maximal fluorescence” value in [7] (at pH 7.53 or higher) is recorded as ≤ 5%. Besides, the pKa in data set [7] (from pH dependence of fluorescence) is ~5.84. In data set [8], the emission maximum was 571 nm and the excitation maximum is reported as 541 nm.
In [2], `O=C(NCCOCCOCCCCCCCl)c1ccc(CNC(=O)c2ccc(C(=O)[O-])c(-c3c4ccc(=[N+]5CCN(CCCCS(=O)(=O)O)CC5)cc-4oc4cc(N5CCN(CCCCS(=O)(=O)O)CC5)ccc34)c2)cc1` [PBI-4959, 4-((4-((2-(2-((6-chlorohexyl)oxy)ethoxy)ethyl)carbamoyl)benzyl))-3′,6′-bis(4-(4-sulfobutyl)piperazin-1-yl) rhodamine(5′,6′) carboxamide] returned an Em of 564 nm and an Ex of 532 nm. Also, in the data set with wild-type U2-OS cells, the “toxicity (cell viability)” value is “non-toxicity”. The “detection of HaloTag-EDG1 internalization” value at U2-OS HaloTag-EDG1 cells [9] (with 1 uM S1P) is listed as “ability to detect internalization of HaloTag-EDG1”. Besides, on U2-OS HaloTag-EDG1 cells [9] (without 1 uM S1P), the “detection of background HaloTag-EDG1 internalization” value was “ability to detect background internalization of HaloTag-EDG1”. The cell permeability entry in [1] is reported as “non-permeability”.
